A short description of the test: Inhibition of influenza A virus H1N1 endonuclease (1 to 204 residues) expressed in Escherichia coli BL21 (RIL) using (6-FAM)-TGGCAATATCAGCTCCACA(MGBNFQ) single-stranded DNA probe by fluorimetry.
A word on the IC50: it is the concentration needed to halve the response being measured. Higher therefore signals weaker potency. The compound `N#Cc1ccc(-c2ncc(O)c(=O)[nH]2)cc1` registered a concentration for half-maximal inhibition (IC50) of 520 nM.

In the case of `O=c1[nH]cnc(-c2ccc(F)cc2)c1O`, the IC50 was over 193000 nM.

`O=c1[nH]cc(-c2ccc(F)cc2)[nH]c1=O` showed a 50% inhibitory concentration (IC50) of 59000 nM.

For `O=c1[nH]ncc(-c2ccc(F)cc2)c1O`, half-maximal inhibition (IC50) required 177000 nM.

Compound `O=c1[nH]c(-c2ccc(F)cc2)ncc1O` returned an IC50 of 580 nM.

Compound `O=c1[nH]c(-c2cccc(-c3ccccc3)c2)ncc1O` returned an IC50 of 400 nM.

Compound `O=c1[nH]nc(-c2ccc(-c3nnn[nH]3)cc2)cc1O` gave an IC50 of 3000 nM.

Take `O=c1[nH]c(-c2cccc(-c3nnn[nH]3)c2)ncc1O`: the IC50 was found to be 480 nM.

Take `O=c1[nH]cc(-c2ccc(F)cc2)cc1O`: the IC50 came to 730 nM.

For the compound `O=c1[nH]c(-c2ccc(F)cc2)ccc1O`, the 50% inhibitory concentration (IC50) turned out to be 430 nM. This IC50 is about 1.7-fold lower than that of the compound before.

`N#Cc1ccc(-c2cc(O)c(=O)[nH]n2)cc1` returned an IC50 of 9300 nM.

Consider `O=c1[nH]nc(-c2ccc(F)cc2)cc1O`, for which it took 6000 nM to reach half-maximal inhibition (IC50).

Regarding `O=c1[nH]c(-c2ccc(-c3nnn[nH]3)cc2)ncc1O`, the IC50 stood at 150 nM.

`O=c1[nH]c(-c2cccc(F)c2)ncc1O` came in with an IC50 of 1560 nM.

Turning to `N#Cc1cccc(-c2ncc(O)c(=O)[nH]2)c1`, it took 250 nM to reach half-maximal inhibition (IC50).

In turn, `O=c1[nH]c(-c2ccc(-c3ccccc3)cc2)ncc1O` had an IC50 of 2240 nM. Compared with the last compound, the IC50 is about 9-fold higher.

Compound `O=c1[nH]c(-c2ccccc2-c2ccccc2)ncc1O` gave a 50% inhibitory concentration (IC50) of 1100 nM.

Turning to `O=c1[nH]c(-c2ccccc2F)ncc1O`, half-maximal inhibition (IC50) was put at 1670 nM. Compared with the last compound, the IC50 is about 1.5-fold higher.

Values taken from ChEMBL document CHEMBL3351429, “Phenyl substituted 4-hydroxypyridazin-3(2H)-ones and 5-hydroxypyrimidin-4(3H)-ones: inhibitors of influenza A endonuclease” (J Med Chem, 2014).
